{"source": "patent US20220187281A1", "about": "“METHODS AND SYSTEMS FOR EVALUATION OF CELL SAMPLES” (priority 2019, published 2022)", "key": {"[1]": {"system": "CN0458 colon tumor slices", "test": "Cell-Titer Blue viability of CN0458 colon PDX tumor slices", "format": "cell-based, human", "settings": "100 uM"}, "[2]": {"system": "colorectal cancer PDX model (mCRC)", "test": "Cell-Titer Blue viability of colorectal cancer PDX model (FIG. 2E)", "format": "cell-based, human", "settings": "oxaliplatin 0.1, 1, 10 μM; 5-FU 1, 10, 100 μM; days 0, 4, 8 in vitro"}, "[3]": {"system": "BR1126 TNBC PDX tumor", "test": "Cell-Titer Blue viability of BR1126 TNBC PDX tumor slices", "format": "cell-based, human"}, "[4]": {"system": "BR0851 TNBC PDX tumor", "test": "Cell-Titer Blue viability of BR0851 TNBC PDX tumor slices", "format": "cell-based, human", "settings": "for sensitivity by viability assay readings: 12 days ex vivo compared to 0 div; for response profile of tumor slices: by 13 div, long-term exposure"}, "[5]": {"system": "BR0851 TNBC PDX", "settings": "JAX PDX Resource data; cited from earlier work"}, "[6]": {"system": "BR0851 TNBC PDX slices", "test": "Immunohistochemical analysis of BR0851 TNBC PDX slices", "format": "cell-based, human", "settings": "BR0851 slices at 13 div; for overall cell numbers (immunohistochemical analysis): compared with vehicle"}, "[7]": {"system": "BR1126 TNBC PDX", "settings": "JAX PDX Resource data; cited from earlier work"}, "[8]": {"system": "patient tumor tissue samples from two locations", "test": "Viability of samples from two locations of the same patient tumor (Example 6)", "format": "cell-based", "settings": "0, 3, 5, 9, and 12 days in vitro", "procedure": "Tumor tissue samples from two locations of the same patient tumor are obtained and cultured as described in Example 1. Each sample is treated with Cisplatin (Cis), Doxorubicin (Dox) or Paclitaxel (Taxol). Viability measurements are obtained at 0, 3, 5, 9, and 12 days in vitro."}, "[9]": {"system": "human metastatic colorectal cancer (mCRC) biopsy core", "test": "CTB viability of human mCRC biopsy core slices in long-term culture (therapy resistance)", "format": "cell-based", "settings": "encorafenib 100 nM, binimetinib 100 nM; 16 days in culture (days 16 and 20)", "method": "(§1) 5 μl of Cell-Titer Blue (CTB) (Promega) substrate was added to 1 ml of culture medium and incubated at 37° C. for 15 or 24 hr. 100 μl of media was removed from each sample culture and fluorescence was measured (Ex560/Em590) using Enspire® multimode plate reader (Perkin Elmer®). Background fluorescence of the culture medium was subtracted from each sample reading at each day Immediately following the CTB reading, media was changed and drugs were added to fresh media to continue culture. At desired time points, additional viability measurements were made to collect longitudinal data and conditioned media is collected and analyzed. After the final time point, tissues were fixed in formalin and embedded in paraffin or OCT for histological analyses or lysed in RIPA buffer or Trizol and conditioned media is frozen. To account for variability in tissue composition of each slice punch, viability readings of each sample was normalized to the respective CTB reading immediately after slicing (0 days ex vivo: 1 dex CTB reading) and relative fold changes in CTB readings at each time point were analyzed.\n(§2) Samples were precision cut into […] thick slices using a Vibratome VT1200S (Leica Microsystems). […]"}, "[10]": {"system": "CNSTG colon tumor slices", "test": "Cell-Titer Blue viability of CNSTG colon PDX tumor slices", "format": "cell-based, human", "settings": "100 uM"}, "[11]": {"system": "human metastatic colorectal cancer (mCRC) biopsy cores", "test": "CTB viability of mCRC biopsy core slices from two patients (immunotherapy response)", "format": "cell-based", "settings": "nivolumab 10 μg/mL, encorafenib 100 nM, cetuximab 10 μg/mL; early and late time points", "method": "as §1, §2"}, "[12]": {"settings": "compared with vehicle or Cisplatin treated tissues"}}}
{"molecule": "O=c1[nH]cc(F)c(=O)[nH]1", "note": "[5-FU, 5-fluorouracil]", "values": [{"measurement": "suppression of viability of CN0458 slices compared with CNSTG slices", "setting": "[1]", "result": "more effective"}, {"measurement": "cell viability response", "setting": "[2]", "result": "no reduction in cell viability"}]}
{"molecule": "N.N.[Cl][Pt][Cl]", "note": "[Cisplatin]", "values": [{"measurement": "ex vivo treatment response", "setting": "[3]", "result": "partial response"}, {"measurement": "sensitivity by viability assay readings", "setting": "[3]", "result": "sensitive"}, {"measurement": "sensitivity by viability assay readings", "setting": "[4]", "result": "insensitive"}, {"measurement": "response profile of tumor slices", "setting": "[4]", "result": "progressive disease profile"}, {"measurement": "in vivo treatment response", "setting": "[5]", "result": "no response"}, {"measurement": "overall cell numbers (immunohistochemical analysis)", "setting": "[6]", "result": "similar"}, {"measurement": "in vivo treatment response", "setting": "[7]", "result": "partial response"}, {"measurement": "difference between viability measurements of the two tumor locations", "setting": "[8]", "result": "significant difference"}]}
{"molecule": "COc1cccc2c1C(=O)c1c(O)c3c(c(O)c1C2=O)C[C@@](O)(C(=O)CO)C[C@@H]3O[C@H]1C[C@H](N)[C@H](O)[C@H](C)O1", "note": "[Doxorubicin]", "values": [{"measurement": "sensitivity by viability assay readings", "setting": "[4]", "result": "sensitive"}, {"measurement": "response profile of tumor slices", "setting": "[4]", "result": "complete response"}, {"measurement": "overall cell numbers (immunohistochemical analysis)", "setting": "[6]", "result": "overall reduction in cell numbers"}, {"measurement": "necrotic regions", "setting": "[6]; [12]", "result": "increase"}, {"measurement": "pyknotic and abnormal nuclei", "setting": "[6]; [12]", "result": "increase"}, {"measurement": "difference between viability measurements of the two tumor locations", "setting": "[8]", "result": "significant difference"}]}
{"molecule": "CC(=O)O[C@H]1C(=O)[C@@]2(C)[C@H]([C@H](OC(=O)c3ccccc3)[C@]3(O)C[C@H](OC(=O)[C@H](O)[C@@H](NC(=O)c4ccccc4)c4ccccc4)C(C)=C1C3(C)C)[C@]1(OC(C)=O)CO[C@@H]1C[C@@H]2O", "note": "[Paclitaxel]", "values": [{"measurement": "sensitivity by viability assay readings", "setting": "[3]", "result": "sensitive"}, {"measurement": "difference between viability measurements of the two tumor locations", "setting": "[8]", "result": "significant difference"}]}
{"molecule": "Cn1cnc2c(F)c(Nc3ccc(Br)cc3F)c(C(=O)NOCCO)cc21", "note": "[binimetinib]", "values": [{"measurement": "therapy resistance in long-term culture (viability)", "setting": "[9]", "result": "suppressed"}]}
{"molecule": "COC(=O)N[C@@H](C)CNc1nccc(-c2cn(C(C)C)nc2-c2cc(Cl)cc(NS(C)(=O)=O)c2F)n1", "note": "[encorafenib]", "values": [{"measurement": "therapy resistance in long-term culture (viability)", "setting": "[9]", "result": "emergence of encorafenib resistance"}]}
{"molecule": "O=C1[O][Pt]2([NH][C@@H]3CCCC[C@H]3[NH]2)[O]C1=O", "note": "[oxaliplatin]", "values": [{"measurement": "cell viability response", "setting": "[2]", "result": "dose and time-dependent response"}, {"measurement": "suppression of viability of CNSTG slices compared with CN0458 slices", "setting": "[10]", "result": "more effective"}]}
{"molecule": "nivolumab", "values": [{"measurement": "sensitivity of the two mCRC patient samples (viability)", "setting": "[11]", "result": "differential sensitivity"}]}
